# Experimental data as given in ChEMBL document CHEMBL1155068, “Balancing oral exposure with Cyp3A4 inhibition in benzimidazole-based IGF-IR inhibitors” (Bioorg Med Chem Lett, 2008).
# Assay: Metabolic stability in mouse liver microsomes
# Assay type: ADME, Microsome
row,SMILES,Stability [nmol/min/mg]
1,Cc1cc(N2CCOCC2)cc2[nH]c(-c3c(NC[C@@H](O)c4cccc(Cl)c4)cc[nH]c3=O)nc12,0.1
2,COCCOC(=O)N1CCN(C2CCN(c3cc(C)c4nc(-c5c(NC[C@@H](O)c6cccc(Cl)c6)cc[nH]c5=O)[nH]c4c3)CC2)CC1,< 0.1
3,Cc1cc(N2CCC(N3CCN(C)CC3)CC2)cc2[nH]c(-c3c(NC[C@@H](O)c4cccc(Cl)c4)cc[nH]c3=O)nc12,< 0.1
4,Cc1cc(N2CCC(N3CCN(C(=O)N4CCN(C)CC4)CC3)CC2)cc2[nH]c(-c3c(NC[C@@H](O)c4cccc(Cl)c4)cc[nH]c3=O)nc12,< 0.1
5,Cc1cc(N2CCC(N3CCN(C(=O)N4CCOCC4)CC3)CC2)cc2[nH]c(-c3c(NC[C@@H](O)c4cccc(Cl)c4)cc[nH]c3=O)nc12,< 0.1
6,Cc1cc(N2CCC(NC(=O)C3CC3)CC2)cc2[nH]c(-c3c(NC[C@@H](O)c4cccc(Cl)c4)cc[nH]c3=O)nc12,0.1
7,COCCOC1CCN(c2cc(C)c3nc(-c4c(NC[C@@H](O)c5cccc(Cl)c5)cc[nH]c4=O)[nH]c3c2)CC1,0.1
8,Cc1cc(N2CCC(OCCO)CC2)cc2[nH]c(-c3c(NC[C@@H](O)c4cccc(Cl)c4)cc[nH]c3=O)nc12,> 0.2
9,Cc1cc(N2CCC3(CC2)OCCO3)cc2[nH]c(-c3c(NC[C@@H](O)c4cccc(Cl)c4)cc[nH]c3=O)nc12,0.1
10,Cc1cc(N2CCC(N3CCOCC3)CC2)cc2[nH]c(-c3c(NC[C@@H](O)c4cccc(Cl)c4)cc[nH]c3=O)nc12,0.1
11,COCC(=O)N1CCN(C2CCN(c3cc(C)c4nc(-c5c(NC[C@@H](O)c6cccc(Cl)c6)cc[nH]c5=O)[nH]c4c3)CC2)CC1,< 0.1
12,Cc1cc(N2CCC(N3C[C@@H](C)O[C@@H](C)C3)CC2)cc2[nH]c(-c3c(NC[C@@H](O)c4cccc(Cl)c4)cc[nH]c3=O)nc12,< 0.1
13,COCCOCC(=O)N1CCN(C2CCN(c3cc(C)c4nc(-c5c(NC[C@@H](O)c6cccc(Cl)c6)cc[nH]c5=O)[nH]c4c3)CC2)CC1,< 0.1
14,Cc1cc(N2CCC(N3CCN(C(=O)OCCO)CC3)CC2)cc2[nH]c(-c3c(NC[C@@H](O)c4cccc(Cl)c4)cc[nH]c3=O)nc12,< 0.1
15,COC(=O)N1CCN(C2CCN(c3cc(C)c4nc(-c5c(NC[C@@H](O)c6cccc(Cl)c6)cc[nH]c5=O)[nH]c4c3)CC2)CC1,< 0.1
16,CC(=O)N1CCN(C2CCN(c3cc(C)c4nc(-c5c(NC[C@@H](O)c6cccc(Cl)c6)cc[nH]c5=O)[nH]c4c3)CC2)CC1,< 0.1
17,Cc1cc(N2CCC(N3CCN(C(=O)C4CC4)CC3)CC2)cc2[nH]c(-c3c(NC[C@@H](O)c4cccc(Cl)c4)cc[nH]c3=O)nc12,< 0.1
18,COC1CCN(c2cc(C)c3nc(-c4c(NC[C@@H](O)c5cccc(Cl)c5)cc[nH]c4=O)[nH]c3c2)CC1,> 0.2
19,Cc1cc(N2CCC(O)CC2)cc2[nH]c(-c3c(NC[C@@H](O)c4cccc(Cl)c4)cc[nH]c3=O)nc12,0.1
20,COC(=O)NC1CCN(c2cc(C)c3nc(-c4c(NC[C@@H](O)c5cccc(Cl)c5)cc[nH]c4=O)[nH]c3c2)CC1,0.1
